Experimental data as given in patent publication US20010053796A1, “Delta-aminolevulinic acid for prevention and treatment of infection microorganisms and parasite” (priority 2000, published 2001).

Experiments:
Scutica = test: Application to Scutica-infected seedling nursery; assay type: in vivo, flatfish; conditions: 30 ppm formalin day 1, then 1 ppm for 2 hrs on days 2 and 3
Method: Seedling was produced in flatfish seedling nursery and flatfish fry in seedling nursery, where marketing had stopped due to the infection of Scutica in a marketing stage (the length 5˜6 cm). They were treated with δ-aminolevulinic acid made by the inventors. Seriously infected fish were collected from seedling nursery and contained in water tanks and treated. On the first day, the fish were treated with 30 ppm formalin and, on the second and third day, were treated δ-aminolevulinic acid at concentration of 1 ppm for 2 hrs. […] Cultivation in a water tank of a fish farm where the ozone treatment system, which can control pathogenic organisms in seawater for cultivating, was applied has shown possibility of normal cultivation.

Birnavirus = test: Treatment effect on eel disease of Birnavirus (field); assay type: in vivo; conditions: 0.1˜10 ppm added to the farm; after 3 weeks administration
Method: In the example, the experiment was carried out in the field at the Eel Aguacultural Farm, Gochang and Kunsan, in Chunbuk, Korea. Eels were dead by infection of Birnavirus, which was easely confirmed by microscopical or electron microscopical observation.
ALA, at the concentration range of 0.1˜10 ppm was added to the farm for 3 months. After 3 weeks administration, motality was decreased to less than 10% (1˜2kg).

Staphylococcus sp. [1] = test: Prevention effect for artificial infection (abdominal injection of bacteria); assay type: in vivo, Sebastes schlegeli; conditions: for Mortality during Cultivation: dead of 20 fish
Method: (§1) The water temperature was maintained at 20° C. (±2° C. ) throughout the experiment. […]
Bastardhalibut and Sebastes schlegeli were infected by Staphylococcus sp. by abdominal injection with the same method of fish breeding δ-aminolevulinic acid treatment and artificial infection carried out in Experiment 1 and 2. Each experimental fish was moved to fish tanks for monitoring and monitored for mortality according to infection for 2 weeks.

Staphylococcus epidermis [2] = test: as above; assay type: in vivo, Bastardhalibut; conditions: for Mortality during Cultivation: dead of 20 fish
Method: as §1
Bastardhalibut and Sebastes schlegeli were infected by […] Staphylococcus epidermis through abdominal injection with the same method of fish breeding; δ-aminolevulinic acid treatment and artificial carried out in Experiment 1 and 2. Each experimental fish was moved to fish tanks for monitoring and monitored for mortality according to infection for 2 weeks. […] The treated group, with δ-aminolevulinic acid by tank administraion method and oral administration method, has shown high viability.

Pseudomonas sp. = test: Treatment effect of infected fry by oral administration in feed; assay type: in vivo, Bastardhalibut; conditions: 50 fish
Method: (§2) In this example, fry of Bastardhalibut and Sebastes schlegeli (mean body weight 2 g), 50 per each breeding tank, were preliminary-bred for 1 week and stabilized. […] The artificial infection methods were carried out through the digestion method. Pathogenic organisms were applied into fish tanks and introduced into seawater for an hour, wherein the concentration of organisms adjusted to 10^4 CFU/mL. Treatment conditions are as follows; after artificial infection, infected fish were moved to fish tanks and kept in the infection period for 3 days. […] The fish were bred for 2 weeks after exchanging with clean seawater and the mortality of fish according to infection was monitored. In the control groups, after each bacteria were identically infected through digestion method, mortality of Bastardhalibut and Sebastes schlegeli according to bacteria infection was identified while breeding with marketing assorted feed without δ-aminolevulinic acid. As a result of this experiment, δ-aminolevulinic acid-treated groups have shown high viability in both Bastardhalibut (Table 20˜Table 23) and Sebastes schlegeli (Table 24˜Table 27).

Staphylococcus epidermis [3] = test: as above; assay type: in vivo, Bastardhalibut; conditions: 50 fish
Method: as §2

Streptococcus sp. = test: as above; assay type: in vivo, Bastardhalibut; conditions: 50 fish
Method: as §2

Staphylococcus sp. [4] = test: as above; assay type: in vivo, Bastardhalibut; conditions: 50 fish
Method: as §2

Edwardsiella tarda = test: as above; assay type: in vivo, Bastardhalibut; conditions: 50 fish
Method: as §2

[5] = feed 0.1 ppm from 4th day of infection
[6] = feed 1.0 ppm from 4th day of infection
[7] = feed 50 ppm from 4th day of infection
[8] = feed 100 ppm from 4th day of infection

NCC(=O)CCC(=O)O [δ-aminolevulinic acid]
examination of infection through sampling of fish body (Scutica; after 2 weeks of cultivation): no infection by Scutica
vitality of treated fish (Scutica; after 1 day of treatment): highly improved
mortality (Birnavirus): less than 10%
Viability (Staphylococcus sp. [1]; orally, 0.1 ppm in feed): 50%
Mortality during Cultivation (Staphylococcus sp. [1]; orally, 0.1 ppm in feed): 10
Viability (Staphylococcus sp. [1]; orally, 1.0 ppm in feed): 55%
Mortality during Cultivation (Staphylococcus sp. [1]; orally, 1.0 ppm in feed): 9
Viability (Staphylococcus sp. [1]; orally, 10 ppm in feed): 90%
Mortality during Cultivation (Staphylococcus sp. [1]; orally, 10 ppm in feed): 2
Viability (Staphylococcus sp. [1]; orally, 100 ppm in feed): 90%
Mortality during Cultivation (Staphylococcus sp. [1]; orally, 100 ppm in feed): 2
Viability (Staphylococcus sp. [1]; to fish tanks, 0.01 ppm): 60%
Mortality during Cultivation (Staphylococcus sp. [1]; to fish tanks, 0.01 ppm): 8
Viability (Staphylococcus sp. [1]; to fish tanks, 0.1 ppm): 65%
Mortality during Cultivation (Staphylococcus sp. [1]; to fish tanks, 0.1 ppm): 7
Viability (Staphylococcus sp. [1]; to fish tanks, 1.0 ppm): 95%
Mortality during Cultivation (Staphylococcus sp. [1]; to fish tanks, 1.0 ppm): 1
Viability (Staphylococcus sp. [1]; to fish tanks, 10 ppm): 90%
Mortality during Cultivation (Staphylococcus sp. [1]; to fish tanks, 10 ppm): 2
Viability (Staphylococcus epidermis [2]; orally, 0.1 ppm in feed): 50%
Mortality during Cultivation (Staphylococcus epidermis [2]; orally, 0.1 ppm in feed): 10
Viability (Staphylococcus epidermis [2]; orally, 1.0 ppm in feed): 55%
Mortality during Cultivation (Staphylococcus epidermis [2]; orally, 1.0 ppm in feed): 9
Viability (Staphylococcus epidermis [2]; orally, 10 ppm in feed): 70%
Mortality during Cultivation (Staphylococcus epidermis [2]; orally, 10 ppm in feed): 6
Viability (Staphylococcus epidermis [2]; orally, 100 ppm in feed): 80%
Mortality during Cultivation (Staphylococcus epidermis [2]; orally, 100 ppm in feed): 4
Viability (Staphylococcus epidermis [2]; to fish tanks, 0.01 ppm): 55%
Mortality during Cultivation (Staphylococcus epidermis [2]; to fish tanks, 0.01 ppm): 9
Viability (Staphylococcus epidermis [2]; to fish tanks, 0.1 ppm): 65%
Mortality during Cultivation (Staphylococcus epidermis [2]; to fish tanks, 0.1 ppm): 7
Viability (Staphylococcus epidermis [2]; to fish tanks, 1.0 ppm): 65%
Mortality during Cultivation (Staphylococcus epidermis [2]; to fish tanks, 1.0 ppm): 7
Viability (Staphylococcus epidermis [2]; to fish tanks, 10 ppm): 75%
Mortality during Cultivation (Staphylococcus epidermis [2]; to fish tanks, 10 ppm): 5
Viability (Pseudomonas sp.; [5]): 42%
Viability (Pseudomonas sp.; [6]): 68%
Viability (Pseudomonas sp.; [7]): 88%
Viability (Pseudomonas sp.; [8]): 82%
Viability (Staphylococcus epidermis [3]; [5]): 42%
Viability (Staphylococcus epidermis [3]; [6]): 68%
Viability (Staphylococcus epidermis [3]; [7]): 94%
Viability (Staphylococcus epidermis [3]; [8]): 86%
Viability (Streptococcus sp.; [5]): 36%
Viability (Streptococcus sp.; [6]): 74%
Viability (Streptococcus sp.; [7]): 90%
Viability (Streptococcus sp.; [8]): 86%
Viability (Staphylococcus sp. [4]; [5]): 42%
Viability (Staphylococcus sp. [4]; [6]): 72%
Viability (Staphylococcus sp. [4]; [7]): 92%
Viability (Staphylococcus sp. [4]; [8]): 86%
Viability (Edwardsiella tarda; [5]): 42%
Viability (Edwardsiella tarda; [6]): 68%
Viability (Edwardsiella tarda; [7]): 92%
Viability (Edwardsiella tarda; [8]): 82%
